Among the data in patent US12187721B2, “Protein tyrosine phosphatase inhibitors” (Array BioPharma Inc., priority 2018, dated 2025) are IC50 values, retold here.

The target in the first experiment is T1, full-length SHP2 (His6-tagged SHP2(2-527)) (Homo sapiens, UniProt Q06124).
T1 construct: His6-tagged SHP2(2-527); His6; made in house; host or cells: E. coli
T1 sequence (Q06124 2-527): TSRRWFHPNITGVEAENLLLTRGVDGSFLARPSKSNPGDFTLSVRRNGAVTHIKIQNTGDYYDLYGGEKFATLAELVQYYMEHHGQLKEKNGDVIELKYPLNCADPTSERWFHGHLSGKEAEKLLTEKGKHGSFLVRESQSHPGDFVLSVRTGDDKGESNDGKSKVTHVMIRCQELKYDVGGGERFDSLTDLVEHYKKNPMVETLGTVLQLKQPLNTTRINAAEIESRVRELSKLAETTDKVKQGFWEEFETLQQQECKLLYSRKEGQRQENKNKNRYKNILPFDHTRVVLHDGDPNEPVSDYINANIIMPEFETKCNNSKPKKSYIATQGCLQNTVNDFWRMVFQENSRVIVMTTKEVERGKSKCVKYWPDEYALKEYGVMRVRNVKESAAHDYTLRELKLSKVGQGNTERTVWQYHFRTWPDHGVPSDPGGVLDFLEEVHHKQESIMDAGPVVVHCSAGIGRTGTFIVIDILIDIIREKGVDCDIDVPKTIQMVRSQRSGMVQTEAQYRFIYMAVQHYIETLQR
In words: SHP2 Enzymatic Assay (fluorescence intensity kinetic assay, DiFMUP hydrolysis). It is filed as biochemical.
Conditions: not given
The method in brief:
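1 nM His6-SHP2(2-527), activated by 1 μM bis-phosphopeptide, hydrolysed 50 μM DiFMUP in 25 mM HEPES pH 7.4 with 1 mM DTT, 50 mM KCl and 2% DMSO. DiFMU fluorescence (Ex 355/Em 460 nm) was read kinetically for 15 min at ambient temperature.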
As for `CC(C)(O)CC1(N)CCN(c2cnc3nc(Sc4ccnc(N)c4Cl)ccc3n2)CC1` [Example 129, 1-(4-amino-1-(6-((2-amino-3-chloropyridin-4-yl)thio)pyrido[2,3-b]pyrazin-2-yl)piperidin-4-yl)-2-methylpropan-2-ol], the IC50 was determined as 34 nM.

In turn, `CCC1(N)CCN(c2cnc3nc(Sc4ccnc(N)c4Cl)ccc3n2)CC1` [Example 130, 4-((2-(4-amino-4-ethylpiperidin-1-yl)pyrido[2,3-b]pyrazin-6-yl)thio)-3-chloropyridin-2-amine] came in with an IC50 of 96 nM.

`C[C@@H]1OCC2(CCN(c3cnc4nc(Sc5ccnc6[nH]cnc56)ccc4n3)CC2)[C@@H]1N` [Example 131, (3S,4S)-8-(6-((3H-imidazo[4,5-b]pyridin-7-yl)thio)pyrido[2,3-b]pyrazin-2-yl)-3-methyl-2-oxa-8-azaspiro[4.5]decan-4-amine] returned an IC50 of 419 nM.

Consider `Nc1nccc(Sc2ccc3nc(N4CCC5(CC4)Oc4ccccc4[C@H]5N)cnc3n2)c1Cl` [Example 132], for which the midpoint of inhibition, the IC50, lay at 31 nM.

As to `Nc1cc(Sc2ccc3nc(N4CCC5(CC4)Cc4ncccc4[C@H]5N)cnc3n2)c(Cl)cn1` [Example 133, (S)-1′-(6-((2-amino-5-chloropyridin-4-yl)thio)pyrido[2,3-b]pyrazin-2-yl)-5,7-dihydrospiro[cyclopenta[b]pyridine-6,4′-piperidin]-5-amine], the IC50 was found to be 92 nM.

Turning to `C[C@@H]1OCC2(CCN(c3cnc4nc(N5CCCc6ncccc65)ccc4n3)CC2)[C@@H]1N` [Example 135, (3S,4S)-8-(6-(3,4-dihydro-1,5-naphthyridin-1(2H)-yl)pyrido[2,3-b]pyrazin-2-yl)-3-methyl-2-oxa-8-azaspiro[4.5]decan-4-amine], it took 4030 nM to reach half-maximal inhibition (IC50).

For `C[C@@H]1OCC2(CCN(c3cnc4nc(Sc5ccnc(N)c5C(F)(F)F)ccc4n3)CC2)[C@@H]1N` [Example 136, (3S,4S)-8-(6-((2-amino-3-(trifluoromethyl)pyridin-4-yl)thio)pyrido[2,3-b]pyrazin-2-yl)-3-methyl-2-oxa-8-azaspiro[4.5]decan-4-amine], the IC50 came to 160 nM.

`CC(C)(C)OC(=O)N[C@H]1[C@@H]2C[C@H]1CN(c1cnc3nc(Sc4ccnc(N)c4Cl)ccc3n1)C2` [Example 138] had an IC50 of 574 nM.

As to `Cc1c[nH]c2nccc(Sc3ccc4nc(N5CCC6(CC5)CO[C@@H](C)[C@H]6N)cnc4n3)c12` [Example 139, (3S,4S)-3-methyl-8-(6-((3-methyl-1H-pyrrolo[2,3-b]pyridin-4-yl)thio)pyrido[2,3-b]pyrazin-2-yl)-2-oxa-8-azaspiro[4.5]decan-4-amine], the half-maximal inhibitory concentration (IC50) was found to be 93 nM.

The compound `C[C@@H]1OCC2(CCN(c3cnc4nc(Sc5cc(N)nc6[nH]ccc56)ccc4n3)CC2)[C@@H]1N` [Example 140, (3S,4S)-8-(6-((6-amino-1H-pyrrolo[2,3-b]pyridin-4-yl)thio)pyrido[2,3-b]pyrazin-2-yl)-3-methyl-2-oxa-8-azaspiro[4.5]decan-4-amine] yielded an IC50 of 75 nM.

Compound `C[C@@H]1OCC2(CCN(c3cnc4nc(Sc5c(F)cnc6[nH]ccc56)ccc4n3)CC2)[C@@H]1N` [Example 141, (3S,4S)-8-(6-((5-fluoro-1H-pyrrolo[2,3-b]pyridin-4-yl)thio)pyrido[2,3-b]pyrazin-2-yl)-3-methyl-2-oxa-8-azaspiro[4.5]decan-4-amine] registered an IC50 of 74 nM.

Turning to `CC1CCN(c2cnc3nc(Sc4ccnc(N)c4Cl)ccc3n2)CC1` [Example 143, 3-chloro-4-((2-(4-methylpiperidin-1-yl)pyrido[2,3-b]pyrazin-6-yl)thio)pyridin-2-amine], the midpoint of inhibition, the IC50, lay at 1760 nM.

As to `C[C@@H]1OCC2(CCN(c3cnc4nc(Sc5cc(N)ncc5Cl)ccc4n3)CC2)[C@@H]1N` [Example 144, (3S,4S)-8-(6-((2-amino-5-chloropyridin-4-yl)thio)pyrido[2,3-b]pyrazin-2-yl)-3-methyl-2-oxa-8-azaspiro[4,5]decan-4-amine], half-maximal inhibition (IC50) required 89 nM.

Regarding `CNc1nccc(Sc2ccc3nc(N4CCCC(C)(N)CC4)cnc3n2)c1Cl` (stereo not shown) [Example 146, 1-(6-((3-chloro-2-(methylamino)pyridin-4-yl)thio)pyrido[2,3-b]pyrazin-2-yl)-4-methylazepan-4-amine], the midpoint of inhibition, the IC50, lay at 89 nM.

The compound `Cc1nccc(Sc2ccc3nc(N4CCCC(C)(N)CC4)cnc3n2)c1Cl` (stereo not shown) [Example 147, 1-(6-((3-chloro-2-methylpyridin-4-yl)thio)pyrido[2,3-b]pyrazin-2-yl)-4-methylazepan-4-amine] displayed an IC50 of 50 nM.

On to `CC1(N)CCN(c2cnc3nc(-c4cccc(F)c4Cl)ccc3n2)CC1` [Example 152, 1-(6-(2-chloro-3-fluorophenyl)pyrido[2,3-b]pyrazin-2-yl)-4-methylpiperidin-4-amine], for which half-maximal inhibition (IC50) was put at 30 nM.

In turn, `COc1c(Sc2ccc3nc(N4CCC5(CC4)CO[C@@H](C)[C@H]5N)cnc3n2)ccnc1N` [Example 153, (3S,4S)-8-(6-((2-amino-3-methoxypyridin-4-yl)thio)pyrido[2,3-b]pyrazin-2-yl)-3-methyl-2-oxa-8-azaspiro [4.5] decan-4-amine] returned an IC50 of 164 nM.

As for `Nc1nccc(Sc2ccc3nc(N4CCCC45CC(N)C5)cnc3n2)c1Cl` (stereo not shown) [Example 154, 5-(6-((2-amino-3-chloropyridin-4-yl)thio)pyrido[2,3-b]pyrazin-2-yl)-5-azaspiro[3.4]octan-2-amine], the IC50 turned out to be 1210 nM.

For `COc1cccc2c1CC1(CCN(c3cnc4nc(Sc5ccnc(N)c5Cl)ccc4n3)CC1)[C@@H]2N` [Example 155], inhibition was half-maximal at 45 nM (IC50).

In the case of `Cc1nccc(Sc2ccc3nc(N4CCC5(CC4)Cc4cc(O)ccc4[C@H]5N)cnc3n2)c1Cl` [Example 156, (S)-1-amino-1′-(6-((3-chloro-2-methylpyridin-4-yl)thio)pyrido[2,3-b]pyrazin-2-yl)-1,3-dihydrospiro[indene-2,4′-piperidin]-5-ol], the IC50 is 32 nM.

As for `C[C@@H]1OCC2(CCN(c3cnc4nc(Sc5ccnc6c5CCC6O)ccc4n3)CC2)[C@@H]1N` (stereo partly drawn) [Example 157, 4-((2-((3S,4S)-4-amino-3-methyl-2-oxa-8-azaspiro[4.5]decan-8-yl)pyrido[2,3-b]pyrazin-6-yl)thio)-6,7-dihydro-5H-cyclopenta[b]pyridin-7-ol], the IC50 amounted to 282 nM.

The compound `Nc1nccc(Sc2ccc3nc(N4CCC5(CC4)Cc4cccnc4C5N)cnc3n2)c1Cl` (stereo not shown) [Example 158, 1′-(6-((2-amino-3-chloropyridin-4-yl)thio)pyrido[2,3-b]pyrazin-2-yl)-5,7-dihydrospiro[cyclopenta[b]pyridine-6,4′-piperidin]-7-amine] showed an IC50 of 106 nM.

The compound `Nc1nccc(Sc2ccc3nc(N4CCC5(CC4)Cc4c(Cl)cccc4[C@H]5N)cnc3n2)c1Cl` [Example 159, (S)-1′-(6-((2-amino-3-chloropyridin-4-yl)thio)pyrido[2,3-b]pyrazin-2-yl)-4-chloro-1,3-dihydrospiro[indene-2,4′-piperidin]-1-amine] returned an IC50 of 50 nM.

The same experiment, now with this note: full-length SHP2 with 1 μM activating peptide, 50 μM DiFMUP; single assay or mean of multiple assays; read-out: Biological Example 1 IC50.
`Nc1nccc(Sc2ccc3nc(N4C[C@H]5C[C@@H](C4)[C@H]5N)cnc3n2)c1Cl` [Example 137]: the IC50 amounted to 64 nM.

As for `Nc1nccc(Sc2ccc3nc(N4CCC5(CC4)Cc4cc(F)ccc4[C@H]5N)cnc3n2)c1Cl` [Example 145, (S)-1′-(6-((2-amino-3-chloropyridin-4-yl)thio)pyrido[2,3-b]pyrazin-2-yl)-5-fluoro-1,3-dihydrospiro[indene-2,4′-piperidin]-1-amine], the IC50 was found to be 27 nM.

The IC50 is the concentration that gives 50% inhibition.
